Experimental findings from patent publication US11999732B2, “P2X3 receptor antagonists” (RECORDATI INDUSTRIA CHIMICA E FARMACEUTICA SPA, priority 2018, dated 2024) are described below.

One experiment concerns the target T1, human P2X3 receptor (Homo sapiens, UniProt P56373).
T1 construct: expressed in transfected cells; host or cells: CHO-K1
T1 sequence (P56373 1-397): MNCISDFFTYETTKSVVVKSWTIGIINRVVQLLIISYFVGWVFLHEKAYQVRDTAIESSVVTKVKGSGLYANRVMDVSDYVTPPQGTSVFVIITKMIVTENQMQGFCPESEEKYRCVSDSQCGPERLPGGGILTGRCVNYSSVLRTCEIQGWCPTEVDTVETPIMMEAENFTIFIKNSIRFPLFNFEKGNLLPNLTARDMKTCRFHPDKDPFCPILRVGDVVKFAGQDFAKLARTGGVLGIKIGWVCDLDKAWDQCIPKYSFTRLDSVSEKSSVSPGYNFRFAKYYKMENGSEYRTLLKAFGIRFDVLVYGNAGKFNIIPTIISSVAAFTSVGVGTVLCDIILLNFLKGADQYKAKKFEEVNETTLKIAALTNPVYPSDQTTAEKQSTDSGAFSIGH
Kind of experiment: Calcium luminescence (photoprotein) assay in CHO-K1 cells co-expressing human P2X3 receptor, α,β-Met-ATP stimulation, FLEXSTATION readout. In kind it is cell-based. Conditions: Table 6; human P2X3 receptor antagonist activity, CHO-K1 cells, α,β-Met-ATP; read-out: h-P2X3 IC50. As to the method:
The assay for the human purinergic P2X3 receptor has been adapted to the internal screening instrumentation using the FLEXSTATION as reader and a photoprotein as luminescent readout. The assay consists of CHO-K1 cells recombinantly co-expressing the human P2rx3 receptor and a Ca^2+ sensitive photoprotein. Cells are maintained in DMEM F-12 (1:1) mixture (LONZA cat. no BE04-687F/U1) supplemented with 9 mL of 100 mM Sodium Pyruvate (LONZA cat. no BE13-115E), 29 mL of 7.5% Sodium Bicarbonate (LONZA cat. no: BE17-613E), 5.5 mL of 1 M Hepes (LONZA cat. no BE17-737E), 5 mL of 100× Penicillin/Streptomycin (LONZA cat. no DE17-602E) and 50 mL of Fetal Bovine Serum (Sigma cat. no F7524), 1 mg/mL G418 (Sigma cat. no G8168) and 5 µg/ml puromycin (Sigma cat. no P9620). Standard propagation conditions consist of seeding in a P75 flask twice a week, recovering about 20×10^6 cells, corresponding to about 80% confluency. Cells were seeded into black-walled clear bottom 96 well plates at a density of 40000 cells/well in a Tyrode's buffer (Standard Tyrode's buffer: in house solution, 130 mM NaCl, 5 mM KCl, 2 mM CaCl2, 5 mM NaHCO3, 1 mM MgCl2, 20 mM HEPES, pH 7.4). After 24 h the culture medium was replaced with 200 μL/well of coelenterazine in Tyrode's buffer (Coelenterazine: from BIOSYNTH (cat. no C-7001). 10 mM stock solution was prepared in DMSO and glutathione and stored at −20° C.). The plates were incubated for 4 hours at 37° C., and injected with 10 μL/well of test compounds at 25× concentration in Tyrode's buffer. After 4 minutes a second injection of 50 μL/well of 5× α,β-Met-ATP in Tyrode's buffer (α,β-Met-ATP: from Tocris (cat. no 3209), was dissolved at 100 mM in water and stored in aliquots at −20° C.) was performed and the signal of the emitted luminescence was recorded by FLEXSTATION III (Molecular Devices).
The inhibition curves of the tested compounds at cloned P2X3 receptor were determined by nonlinear regression analysis using software Prism 4.0 (Graphpad, San Diego, Calif.). The IC50 values and pseudo-Hill slope coefficients were estimated by the program.
One may read the IC50 as the point on the concentration scale where inhibition reaches its midpoint. As for `O=C1N2CC(CC3CCCCC3)N=C2c2ncc(N3CCOCC3)cc2N1Cc1ccc(Cl)cc1` (centres unmarked) [Example 61, 6-(4-chlorobenzyl)-2-(cyclohexylmethyl)-8-(morpholin-4-yl)-2,6-dihydroimidazo[1,2-c]pyrido[2,3-e]pyrimidin-5(3H)-one], the half-maximal inhibitory concentration (IC50) came out at 1080 nM.
The same measure, in the same setting: the result for `COc1ccc(CN2C(=O)N3CC(CC(C)C)N=C3c3ncc(N4CCOCC4)cc32)cc1` (centres unmarked) [Example 37, 6-(4-methoxybenzyl)-2-(2-methylpropyl)-8-(morpholin-4-yl)-2,6-dihydroimidazo[1,2-c]pyrido[2,3-e]pyrimidin-5(3H)-one] reads 678 nM; that for `COCC1CN=C2c3ncc(N4CCOCC4)cc3N(Cc3ccc(Cl)cc3)C(=O)N21` (centres unmarked) [Example 13, 6-(4-chlorobenzyl)-3-(methoxymethyl)-8-(morpholin-4-y1)-2,6-dihydroimidazo[1,2-c]pyrido[2,3-e]pyrimidin-5(3H)-one], 1260 nM.
Still for that read-out and setting: in the case of `O=C1N2CC3(CCOCC3)N=C2c2ncc(N3CCOCC3)cc2N1Cc1ccc(Cl)cc1` [Example 40, 6-(4-chlorobenzyl)-8-(morpholin-4-yl)-2′,3′,5′,6′-tetrahydrospiro[imidazo[1,2-c]pyrido[2,3-e]pyrimidine-2,4′-pyran]-5(6H)-one] it was 1050 nM; in that of `COc1ccc(CN2C(=O)N3C(=NCC3C3CCCCC3)c3ncc(N4CCOCC4)cc32)cc1` (centres unmarked) [Example 24, 3-cyclohexyl-6-(4-methoxybenzyl)-8-(morpholin-4-yl)-2,6-dihydroimidazo[1,2-c]pyrido[2,3-e]pyrimidin-5(3H)-one], 515 nM.
Same read-out and setting: in the case of `COCCC1CN=C2c3ncc(N4CCOCC4)cc3N(Cc3ccc(OC)cc3)C(=O)N21` (centres unmarked) [Example 66, 6-(4-methoxybenzyl)-3-(2-methoxyethyl)-8-(morpholin-4-yl)-2,6-dihydroimidazo[1,2-c]pyrido[2,3-e]pyrimidin-5(3H)-one] it was 2280 nM; in that of `COc1cc(CN2C(=O)N3C(=NCC3C)c3ncc(N4CCOCC4)cc32)cc(OC)c1` (centres unmarked) [Example 2], 1190 nM; in that of `COc1cc(CN2C(=O)N3CC(C(C)C)N=C3c3ncc(N4CCC(N)CC4)cc32)cc(OC)c1` (centres unmarked) [Example 42, 8-(4-aminopiperidin-1-yl)-6-(3,5-dimethoxybenzyl)-2-(propan-2-yl)-2,6-dihydroimidazo[1,2-c]pyrido[2,3-e]pyrimidin-5(3H)-one], 189 nM.
Consider `COc1ccc(CN2C(=O)N3CC(C4CCC4)N=C3c3ncc(N4CCOCC4)cc32)cc1` (centres unmarked) [Example 33, 2-cyclobutyl-6-(4-methoxybenzyl)-8-(morpholin-4-yl)-2,6-dihydroimidazo[1,2-c]pyrido[2,3-e]pyrimidin-5(3H)-one], for which the half-inhibitory concentration (IC50) was determined as 219 nM.
For `COc1ccc(CN2C(=O)N3CC(C(C)C)N=C3c3ncc(N4CCC(CO)CC4)cc32)cc1` (centres unmarked) [Example 20], the IC50 stood at 1140 nM.
With `COc1cc(CN2C(=O)N3CC(c4ccccc4)N=C3c3ncc(N4CCOCC4)cc32)cc(OC)c1` (centres unmarked) [Example 46, 6-(3,5-dimethoxybenzyl)-8-(morpholin-4-yl)-2-phenyl-2,6-dihydroimidazo[1,2-c]pyrido[2,3-e]pyrimidin-5(3H)-one], the IC50 amounted to 127 nM.
`COc1cc(CN2C(=O)N3CC(CC(C)C)N=C3c3ncc(N4CCOCC4)cc32)cc(OC)c1` (centres unmarked) [Example 22, 6-(3,5-dimethoxybenzyl)-2-(2-methylpropyl)-8-(morpholin-4-yl)-2,6-dihydroimidazo[1,2-c]pyrido[2,3-e]pyrimidin-5(3H)-one]: the IC50 worked out at 143 nM.
Still for that read-out and setting: in the case of `COc1cc(CN2C(=O)N3CC(C)N=C3c3ncc(N4CCOCC4)cc32)cc(OC)c1` (centres unmarked) [Example 3] it was 1160 nM.
Turning to `COc1ccc(CN2C(=O)N3CC(C(C)C)N=C3c3ncc(N4CCC(N(C)C)CC4)cc32)cc1` (centres unmarked) [Example 21, 8-[4-(dimethylamino)piperidin-1-yl]-6-(4-methoxybenzyl)-2-(propan-2-yl)-2,6-dihydroimidazo[1,2-c]pyrido[2,3-e]pyrimidin-5(3H)-one], the IC50 is 7190 nM.
On the same count and under the same terms, the result for `COc1cc(CN2C(=O)N3CC(C(C)C)N=C3c3ncc(N4CCOCC4)cc32)cc(OC)c1` (centres unmarked) [Example 4, 6-(3,5-dimethoxybenzyl)-8-(morpholin-4-yl)-2-(propan-2-yl)-2,6-dihydroimidazo[1,2-c]pyrido[2,3-e]pyrimidin-5(3H)-one] reads 178 nM.
Still for that read-out and setting: the result for `COc1cc(CN2C(=O)N3C(=NC(C)C3C)c3ncc(N4CCOCC4)cc32)cc(OC)c1` (centres unmarked) [Example 8, 6-(3,5-dimethoxybenzyl)-2,3-dimethyl-8-(morpholin-4-y1)-2,6-dihydroimidazo[1,2-c]pyrido[2,3-e]pyrimidin-5(3H)-one] reads 636 nM.
The same measure, in the same setting: in the case of `COc1ccc(CN2C(=O)N3CC(c4ccccc4)N=C3c3ncc(N4CCOCC4)cc32)cc1` (centres unmarked) [Example 28, 6-(4-methoxybenzyl)-8-(morpholin-4-yl)-2-phenyl-2,6-dihydroimidazo[1,2-c]pyrido[2,3-e]pyrimidin-5(3H)-one] it was 375 nM.

Still in this experiment, the particulars now being: Table 7; human P2X3 receptor antagonist activity, CHO-K1 cells, α,β-Met-ATP; read-out: h-P2X3 IC50.
Turning to `O=c1n(Cc2ccc(Cl)cc2)c2cc(N3CCOCC3)cnc2c2nnc(Cc3cccnc3)n12` [Example 100, 6-(4-chlorobenzyl)-8-(morpholin-4-y1)-3-(pyridin-3-ylmethyl)pyrido[2,3-e][1,2,4]triazolo[4,3-c]pyrimidin-5(6H)-one], the IC50 turned out to be 153 nM.
Take `Cc1ncccc1Cc1nnc2c3ncc(N4CCOCC4)cc3n(Cc3ccc(Cl)cc3)c(=O)n12` [Example 106, 6-(4-chlorobenzyl)-3-[(2-methylpyridin-3-yl)methyl]-8-(morpholin-4-yl)pyrido[2,3-e][1,2,4]triazolo[4,3-c]pyrimidin-5(6H)-one]: the IC50 worked out at 40.6 nM.
Regarding `Cc1c(C(C)C)nc2c3ncc(N4CCOCC4)cc3n(Cc3ccc(Cl)cc3)c(=O)n12` [Example 90], the IC50 came to 332 nM.
Turning to `COc1cc(Cn2c(=O)n3c(C)c(C(C)C)nc3c3ncc(N4CCN(C(C)=O)CC4)cc32)cc(OC)c1` [Example 84, 8-(4-acetylpiperazin-1-yl)-6-(3,5-dimethoxybenzyl)-3-methyl-2-(propan-2-yl)imidazo[1,2-c]pyrido[2,3-e]pyrimidin-5(6H)-one], the IC50 is 259 nM.
The same measure, in the same setting: in the case of `COc1cc(Cn2c(=O)n3c(C)c(C(C)C)nc3c3ncc(NCC4COC4)cc32)cc(OC)c1` [Example 83, 6-(3,5-dimethoxybenzyl)-3-methyl-8-[(oxetan-3-ylmethyl)amino]-2-(propan-2-yl)imidazo[1,2-c]pyrido[2,3-e]pyrimidin-5(6H)-one] it was 292 nM.
Regarding `COc1ccc(Cn2c(=O)n3c(CC(C)C)nnc3c3ncc(N4CCOCC4)cc32)cc1` [Example 104, 6-(4-methoxybenzyl)-3-(2-methylpropyl)-8-(morpholin-4-yl)pyrido[2,3-e][1,2,4]triazolo[4,3-c]pyrimidin-5(6H)-one], the IC50 came out at 734 nM.
Turning to `CCn1ccc(-c2nnc3c4ncc(N5CCOCC5)cc4n(Cc4ccc(Cl)cc4)c(=O)n23)n1` [Example 109, 6-(4-chlorobenzyl)-3-(1-ethyl-1h-pyrazol-3-yl)-8-(morpholin-4-yl)pyrido[2,3-e][1,2,4]triazolo[4,3-c]pyrimidin-5(6H)-one], the IC50 amounted to 203 nM.

Staying with this experiment, now noted: Table 8; human P2X3 receptor antagonist activity, CHO-K1 cells, α,β-Met-ATP; read-out: h-P2X3 IC50.
As for `COCC1CN(c2cnc3c(c2)c(Cc2ccc(OC)cc2)nn2c(CC(C)C)nnc32)C1` [Example 124, 6-(4-methoxybenzyl)-8-[3-(methoxymethyl)azetidin-1-yl]-3-(2-methylpropyl)pyrido[2,3-d][1,2,4]triazolo[4,3-b]pyridazine], the IC50 was 2820 nM.
Take `CC(C)(C)c1nnc2c3ncc(N4CCC(O)CC4)cc3c(Cc3ccc(Cl)cc3)nn12` [Example 140, 1-[5-tert-butyl-8-(4-chlorobenzyl)-3,4,6,7,13-pentazatricyclo[7.4.0.02,6]trideca-1(9),2,4,7,10,12-hexaen-11-yl]piperidin-4-ol]: the IC50 came to 309 nM.
